Laboratory results: PubChem BioAssay AID248 (DTP/NCI, 2004)
Values joined by “and” are separate entries in the source; they are usually repeats but may differ in a detail not shown here. Equal values may be shown once. Toxic doses and inconclusive results are not listed.

Test system: L1210 leukemia ip in BDF1 mice, survival T/C
Assay: NCI In Vivo Anticancer Drug Screen. Data for tumor model L1210 Leukemia (intraperitoneal) in B6D2F1 (BDF1) mice
Settings: endpoint: mean survival time, higher = longer survival
Procedure, shortened: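 Value reflects the ratio of survival in compound-treated mice to survival in vehicle-treated controls, with both groups carrying the same transplanted tumor.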

[1] = dose: 100.0 mg/kg/injection, schedule: Q01DX001 (ip), vehicle: saline
[2] = dose: 100.0 mg/kg/injection, schedule: Q01DX001 (ip), vehicle: carboxymethylcellulose (CMC)
[3] = dose: 400.0 mg/kg/injection, schedule: Q01DX001 (ip), vehicle: carboxymethylcellulose (CMC)
[4] = dose: 100.0 mg/kg/injection, schedule: Q01DX009 (ip), vehicle: Klucel (hydroxypropylcellulose) (HPC)
[5] = dose: 100.0 mg/kg/injection, schedule: Q04DX003 (ip), vehicle: Klucel (hydroxypropylcellulose) (HPC)
[6] = dose: 200.0 mg/kg/injection, schedule: Q01DX009 (ip), vehicle: Klucel (hydroxypropylcellulose) (HPC)
[7] = dose: 200.0 mg/kg/injection, schedule: Q04DX003 (ip), vehicle: Klucel (hydroxypropylcellulose) (HPC)
[8] = dose: 400.0 mg/kg/injection, schedule: Q04DX003 (ip), vehicle: Klucel (hydroxypropylcellulose) (HPC)
[9] = dose: 100.0 mg/kg/injection, schedule: Q04DX003 (ip), vehicle: saline
[10] = dose: 200.0 mg/kg/injection, schedule: Q04DX003 (ip), vehicle: saline
[11] = dose: 400.0 mg/kg/injection, schedule: Q04DX003 (ip), vehicle: saline

CCOc1ccc(-n2c(=O)c(N=Nc3ccc(Cl)cc3)c(O)n(-c3ccccc3OC)c2=S)cc1
T/C (dose: 37.5 mg/kg/injection, schedule: Q01DX001 (ip), vehicle: Klucel (hydroxypropylcellulose) (HPC)): 92 % of control
T/C (dose: 75.0 mg/kg/injection, schedule: Q01DX001 (ip), vehicle: Klucel (hydroxypropylcellulose) (HPC)): 113 % of control
T/C (dose: 150.0 mg/kg/injection, schedule: Q01DX001 (ip), vehicle: Klucel (hydroxypropylcellulose) (HPC)): 103 % of control

C[N+](C)(CCOc1ccccc1)Cc1cccs1
T/C (dose: 50.0 mg/kg/injection, schedule: Q01DX001 (ip), vehicle: saline): 109 % of control
T/C [1]: 97 % of control

C/C(=N\OC(=O)Nc1ccccc1)c1ccccc1
T/C [2]: 98 % of control
T/C [3]: 95 % of control

O=C(c1ccccc1)c1cc(Cl)ccc1N1C(=O)C=CC1=O
T/C (dose: 25.0 mg/kg/injection, schedule: Q04DX002 (ip), vehicle: saline with Tween-80): 90 % of control

S=C(NCCN1CCOCC1)Nc1ccccc1
T/C (dose: 50.0 mg/kg/injection, schedule: Q01DX001 (ip), vehicle: other): 105 % of control
T/C (dose: 100.0 mg/kg/injection, schedule: Q01DX001 (ip), vehicle: other): 94 % of control
T/C (dose: 200.0 mg/kg/injection, schedule: Q01DX001 (ip), vehicle: other): 94 % of control
T/C (dose: 400.0 mg/kg/injection, schedule: Q01DX001 (ip), vehicle: other): 92 % of control

Cc1c(C)n(C2OC(CO)C(O)C2O)c(=O)[nH]c1=O (configuration not stated)
T/C [1]: 96 % of control
T/C (dose: 200.0 mg/kg/injection, schedule: Q01DX001 (ip), vehicle: saline): 108 % of control
T/C (dose: 400.0 mg/kg/injection, schedule: Q01DX001 (ip), vehicle: saline): 93 % of control

O=S(=O)(O)C(O)c1ccccc1 (configuration not stated)
T/C (dose: 100.0 mg/kg/injection, schedule: Q04DX002 (ip), vehicle: saline): 97 % of control
T/C (dose: 200.0 mg/kg/injection, schedule: Q04DX002 (ip), vehicle: saline): 100 % of control
T/C (dose: 400.0 mg/kg/injection, schedule: Q04DX002 (ip), vehicle: saline): 103 % of control

O=C(COc1ccc(Cl)cc1Cl)OCCBr
T/C (dose: 100.0 mg/kg/injection, schedule: Q04DX002 (ip), vehicle: other): 96 % of control
T/C (dose: 200.0 mg/kg/injection, schedule: Q04DX002 (ip), vehicle: other): 118 % of control
T/C (dose: 400.0 mg/kg/injection, schedule: Q04DX002 (ip), vehicle: other): 93 % of control

OC(c1ccccc1)(c1ccccc1)C1C(Cc2ccccc2)C1Cc1ccccc1 (configuration not stated)
T/C (dose: 100.0 mg/kg/injection, schedule: Q01DX001 (ip), vehicle: steriod suspending solution): 110 % of control
T/C (dose: 200.0 mg/kg/injection, schedule: Q01DX001 (ip), vehicle: steriod suspending solution): 112 % of control
T/C (dose: 400.0 mg/kg/injection, schedule: Q01DX001 (ip), vehicle: steriod suspending solution): 104 % of control

CN(/N=N/c1nc[nH]c1C(N)=O)C(C)(C)C
T/C (dose: 12.5 mg/kg/injection, schedule: Q01DX009 (ip), vehicle: saline with Tween-80): 103 % of control
T/C (dose: 12.5 mg/kg/injection, schedule: Q04DX009 (ip), vehicle: saline with Tween-80): 98 % of control
T/C (dose: 25.0 mg/kg/injection, schedule: Q01DX009 (ip), vehicle: saline with Tween-80): 93 % of control
T/C (dose: 25.0 mg/kg/injection, schedule: Q04DX003 (ip), vehicle: Klucel (hydroxypropylcellulose) (HPC)): 100 % of control
T/C (dose: 25.0 mg/kg/injection, schedule: Q04DX009 (ip), vehicle: saline with Tween-80): 103 % of control
T/C (dose: 50.0 mg/kg/injection, schedule: Q01DX009 (ip), vehicle: saline with Tween-80): 101 % of control
T/C (dose: 50.0 mg/kg/injection, schedule: Q04DX003 (ip), vehicle: Klucel (hydroxypropylcellulose) (HPC)): 103 % of control
T/C (dose: 50.0 mg/kg/injection, schedule: Q04DX009 (ip), vehicle: saline with Tween-80): 103 % of control
T/C [4]: 97 % of control
T/C (dose: 100.0 mg/kg/injection, schedule: Q01DX009 (ip), vehicle: saline with Tween-80): 103 % of control
T/C [5]: 102 % of control
T/C (dose: 100.0 mg/kg/injection, schedule: Q04DX009 (ip), vehicle: saline with Tween-80): 103 % of control
T/C [6]: 96 % of control
T/C (dose: 200.0 mg/kg/injection, schedule: Q01DX009 (ip), vehicle: saline with Tween-80): 103 % of control
T/C [7]: 111 % of control
T/C (dose: 200.0 mg/kg/injection, schedule: Q04DX009 (ip), vehicle: saline with Tween-80): 101 % of control
T/C (dose: 400.0 mg/kg/injection, schedule: Q01DX009 (ip), vehicle: Klucel (hydroxypropylcellulose) (HPC)): 97 % of control
T/C (dose: 400.0 mg/kg/injection, schedule: Q01DX009 (ip), vehicle: saline with Tween-80): 97 % of control
T/C [8]: 105 % of control
T/C (dose: 400.0 mg/kg/injection, schedule: Q04DX009 (ip), vehicle: saline with Tween-80): 101 % of control

Cc1cc(=O)c2c(=O)[nH][nH]c2[nH]1
T/C [9]: 95 % of control
T/C [10]: 105 % of control
T/C [11]: 94 % of control

COC(c1ccccc1)[CH]([Hg][Br])C(=O)OC1CC2CCC1(C)C2(C)C (configuration not stated)
T/C (dose: 50.0 mg/kg/injection, schedule: Q01DX001 (ip), vehicle: carboxymethylcellulose (CMC)): 93 % of control

CCC(C(C)C)C1NC1C(C)C1CCC2C3CC=C4CC(OC(C)=O)CCC4(C)C3CCC12C (configuration not stated)
T/C (dose: 100.0 mg/kg/injection, schedule: Q04DX003 (sc), vehicle: steriod suspending solution): 105 % of control
T/C (dose: 200.0 mg/kg/injection, schedule: Q04DX003 (sc), vehicle: steriod suspending solution): 103 % of control
T/C (dose: 400.0 mg/kg/injection, schedule: Q04DX003 (sc), vehicle: steriod suspending solution): 97 % of control

CCOC(=O)/C(C)=C\C1C(C)=CC(=O)CC1(C)C (configuration not stated)
T/C [5]: 102 % of control
T/C [7]: 95 % of control
T/C [8]: 100 % of control

COc1ccc(-c2nc3ncnc(N)c3[nH]2)cc1
T/C (dose: 12.5 mg/kg/injection, schedule: Q01DX001 (ip), vehicle: saline with Tween-80): 102 % of control
T/C (dose: 25.0 mg/kg/injection, schedule: Q01DX001 (ip), vehicle: saline with Tween-80): 109 % of control
T/C (dose: 50.0 mg/kg/injection, schedule: Q01DX001 (ip), vehicle: saline with Tween-80): 106 % of control

NP(=O)(N1CC1)N1CC1
T/C (dose: 1.0 mg/kg/injection, schedule: Q01DX001 (ip), vehicle: carboxymethylcellulose (CMC)): 110 % of control
T/C (dose: 1.0 mg/kg/injection, schedule: Q01DX015 (ip), vehicle: carboxymethylcellulose (CMC)): 116 % of control
T/C (dose: 2.0 mg/kg/injection, schedule: Q01DX001 (ip), vehicle: carboxymethylcellulose (CMC)): 124 % of control
T/C (dose: 4.0 mg/kg/injection, schedule: Q01DX001 (ip), vehicle: carboxymethylcellulose (CMC)): 110 % of control
T/C (dose: 15.0 mg/kg/injection, schedule: Q01DX001 (ip), vehicle: carboxymethylcellulose (CMC)): 150 % of control
T/C (dose: 30.0 mg/kg/injection, schedule: Q01DX001 (ip), vehicle: carboxymethylcellulose (CMC)): 186 % of control

c1ccc([P+](C2=NNCC2)(c2ccccc2)c2ccccc2)cc1
T/C (dose: 6.25 mg/kg/injection, schedule: Q01DX009 (ip), vehicle: Klucel (hydroxypropylcellulose) (HPC)): 105 % of control
T/C (dose: 12.5 mg/kg/injection, schedule: Q01DX009 (ip), vehicle: Klucel (hydroxypropylcellulose) (HPC)): 118 % of control
T/C (dose: 25.0 mg/kg/injection, schedule: Q01DX009 (ip), vehicle: Klucel (hydroxypropylcellulose) (HPC)): 105 % of control and 109 % of control

Clc1ccc2c(c1)/C(=C/c1cccnc1)c1cc(Cl)cc(Cl)c1-2
T/C [4]: 93 % of control
T/C [5]: 88 % of control
T/C (dose: 200.0 mg/kg/injection, schedule: Q01DX001 (ip), vehicle: Klucel (hydroxypropylcellulose) (HPC)): 94 % of control
T/C [6]: 90 % of control
T/C [7]: 95 % of control
T/C (dose: 400.0 mg/kg/injection, schedule: Q01DX001 (ip), vehicle: Klucel (hydroxypropylcellulose) (HPC)): 90 % of control
T/C [8]: 88 % of control

C=CC(C)(C)C(=C)C
T/C [9]: 110 % of control
T/C [10]: 108 % of control
T/C [11]: 101 % of control

CC(C)(C)NC(=O)CCC(CC(=O)NC(C)(C)C)C1([N+](=O)[O-])CCCCC1 (configuration not stated)
T/C (dose: 100.0 mg/kg/injection, schedule: Q04DX003 (ip), vehicle: saline with Tween-80): 92 % of control
T/C (dose: 200.0 mg/kg/injection, schedule: Q04DX003 (ip), vehicle: saline with Tween-80): 91 % of control
T/C (dose: 400.0 mg/kg/injection, schedule: Q04DX003 (ip), vehicle: saline with Tween-80): 86 % of control

CCCCNC(=O)Nc1ccc(C)cc1
T/C [2]: 100 % of control
T/C (dose: 200.0 mg/kg/injection, schedule: Q01DX001 (ip), vehicle: carboxymethylcellulose (CMC)): 103 % of control
T/C [3]: 97 % of control
